We go through 3 molecules from ChEMBL document CHEMBL5523716, “Discovery of novel EGFR-PROTACs capable of degradation of multiple EGFR-mutated proteins” (Eur J Med Chem, 2024).

A word on the IC50: it is the point on the concentration scale where inhibition reaches its midpoint. Usually DC50 stands for the concentration giving 50% degradation.

One assay relates to A549. Kind of assay: Antiproliferative activity against human A549 cells harboring EGFR wild type assessed as inhibition of cell growth incubated for 48 to 72 hrs by CCK-8 assay. The assay is classed as functional, cell-based. A general note: Tetrazolium dyes change colour on reduction, which living cells bring about.
Assay [1] concerns the target von Hippel-Lindau disease tumor suppressor/Epidermal growth factor receptor (Homo sapiens, UniProt P00533+P40337). Briefly: PROTAC activity at VHL/EGFR Del19 mutant in human HCC827 cells assessed as induction of EGFR degradation incubated for 72 hrs by Western blot analysis. It counts as cell-based. A general note: A western blot detects proteins with antibodies after separation by electrophoresis.

In assay [2] the target is von Hippel-Lindau disease tumor suppressor/Epidermal growth factor receptor (Homo sapiens, UniProt P00533+P40337, T790M/L858R). Briefly: PROTAC activity at VHL/EGFR L858R/T790M mutant in human NCI-H1975 cells assessed as induction of EGFR degradation incubated for 72 hrs by Western blot analysis. The assay is classed as cell-based.
Sequence of von Hippel-Lindau disease tumor suppressor/Epidermal growth factor receptor (Homo sapiens, UniProt P00533+P40337, T790M/L858R) (P00533 25-1210 T790M/L858R limits assumed, stated change not applied): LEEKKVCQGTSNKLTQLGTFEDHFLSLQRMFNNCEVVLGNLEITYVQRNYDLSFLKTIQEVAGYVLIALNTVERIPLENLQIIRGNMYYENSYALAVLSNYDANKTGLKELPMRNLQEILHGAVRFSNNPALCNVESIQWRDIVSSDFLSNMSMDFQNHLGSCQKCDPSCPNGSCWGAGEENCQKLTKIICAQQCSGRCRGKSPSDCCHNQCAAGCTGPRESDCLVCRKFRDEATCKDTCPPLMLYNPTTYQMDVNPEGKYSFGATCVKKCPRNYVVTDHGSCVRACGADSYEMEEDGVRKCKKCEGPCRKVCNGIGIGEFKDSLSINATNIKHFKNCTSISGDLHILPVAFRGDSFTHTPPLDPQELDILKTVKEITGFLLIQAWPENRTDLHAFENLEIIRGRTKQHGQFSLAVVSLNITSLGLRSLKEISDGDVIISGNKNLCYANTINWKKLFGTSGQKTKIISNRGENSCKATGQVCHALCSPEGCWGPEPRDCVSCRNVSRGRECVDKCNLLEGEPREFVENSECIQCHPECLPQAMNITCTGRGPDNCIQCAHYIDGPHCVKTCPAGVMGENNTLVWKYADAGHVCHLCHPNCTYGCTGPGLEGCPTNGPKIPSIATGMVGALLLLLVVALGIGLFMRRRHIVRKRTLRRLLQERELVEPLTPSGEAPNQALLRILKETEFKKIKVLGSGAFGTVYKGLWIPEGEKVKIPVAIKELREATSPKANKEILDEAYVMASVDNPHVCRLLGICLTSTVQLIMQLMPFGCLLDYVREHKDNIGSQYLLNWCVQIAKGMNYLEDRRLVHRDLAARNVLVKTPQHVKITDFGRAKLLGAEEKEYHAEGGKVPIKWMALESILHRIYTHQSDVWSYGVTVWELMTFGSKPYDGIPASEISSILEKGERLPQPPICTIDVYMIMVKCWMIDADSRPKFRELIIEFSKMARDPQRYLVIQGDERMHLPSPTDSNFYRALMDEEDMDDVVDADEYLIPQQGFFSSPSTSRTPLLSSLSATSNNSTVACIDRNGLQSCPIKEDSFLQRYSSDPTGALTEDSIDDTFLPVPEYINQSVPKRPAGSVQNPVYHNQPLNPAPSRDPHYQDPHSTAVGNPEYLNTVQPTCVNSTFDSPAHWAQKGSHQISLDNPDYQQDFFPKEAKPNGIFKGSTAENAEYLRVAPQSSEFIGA
Sequence of von Hippel-Lindau disease tumor suppressor/Epidermal growth factor receptor (Homo sapiens, UniProt P00533+P40337, T790M/L858R) (P40337 whole entry, stated change not applied): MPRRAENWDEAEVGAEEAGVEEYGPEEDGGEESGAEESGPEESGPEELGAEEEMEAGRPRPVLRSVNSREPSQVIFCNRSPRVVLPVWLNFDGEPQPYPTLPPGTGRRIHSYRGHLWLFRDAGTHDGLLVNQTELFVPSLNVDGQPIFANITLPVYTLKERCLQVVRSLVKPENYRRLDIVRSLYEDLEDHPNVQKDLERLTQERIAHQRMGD
Assay [3] relates to von Hippel-Lindau disease tumor suppressor/Epidermal growth factor receptor (Homo sapiens), P00533+P40337 [L858R,T790M]. Briefly: PROTAC activity at VHL/EGFR L858R/T790M mutant in human NCI-H1975 cells assessed as maximal EGFR degradation at 0.15 to 10 uM incubated for 72 hrs by Western blot analysis relative to control. The assay is classed as cell-based. The conditions noted are these: dose 0.15-10 µM.
Sequence of von Hippel-Lindau disease tumor suppressor/Epidermal growth factor receptor (Homo sapiens), P00533+P40337 [L858R,T790M] (P00533 whole entry T790M/L858R): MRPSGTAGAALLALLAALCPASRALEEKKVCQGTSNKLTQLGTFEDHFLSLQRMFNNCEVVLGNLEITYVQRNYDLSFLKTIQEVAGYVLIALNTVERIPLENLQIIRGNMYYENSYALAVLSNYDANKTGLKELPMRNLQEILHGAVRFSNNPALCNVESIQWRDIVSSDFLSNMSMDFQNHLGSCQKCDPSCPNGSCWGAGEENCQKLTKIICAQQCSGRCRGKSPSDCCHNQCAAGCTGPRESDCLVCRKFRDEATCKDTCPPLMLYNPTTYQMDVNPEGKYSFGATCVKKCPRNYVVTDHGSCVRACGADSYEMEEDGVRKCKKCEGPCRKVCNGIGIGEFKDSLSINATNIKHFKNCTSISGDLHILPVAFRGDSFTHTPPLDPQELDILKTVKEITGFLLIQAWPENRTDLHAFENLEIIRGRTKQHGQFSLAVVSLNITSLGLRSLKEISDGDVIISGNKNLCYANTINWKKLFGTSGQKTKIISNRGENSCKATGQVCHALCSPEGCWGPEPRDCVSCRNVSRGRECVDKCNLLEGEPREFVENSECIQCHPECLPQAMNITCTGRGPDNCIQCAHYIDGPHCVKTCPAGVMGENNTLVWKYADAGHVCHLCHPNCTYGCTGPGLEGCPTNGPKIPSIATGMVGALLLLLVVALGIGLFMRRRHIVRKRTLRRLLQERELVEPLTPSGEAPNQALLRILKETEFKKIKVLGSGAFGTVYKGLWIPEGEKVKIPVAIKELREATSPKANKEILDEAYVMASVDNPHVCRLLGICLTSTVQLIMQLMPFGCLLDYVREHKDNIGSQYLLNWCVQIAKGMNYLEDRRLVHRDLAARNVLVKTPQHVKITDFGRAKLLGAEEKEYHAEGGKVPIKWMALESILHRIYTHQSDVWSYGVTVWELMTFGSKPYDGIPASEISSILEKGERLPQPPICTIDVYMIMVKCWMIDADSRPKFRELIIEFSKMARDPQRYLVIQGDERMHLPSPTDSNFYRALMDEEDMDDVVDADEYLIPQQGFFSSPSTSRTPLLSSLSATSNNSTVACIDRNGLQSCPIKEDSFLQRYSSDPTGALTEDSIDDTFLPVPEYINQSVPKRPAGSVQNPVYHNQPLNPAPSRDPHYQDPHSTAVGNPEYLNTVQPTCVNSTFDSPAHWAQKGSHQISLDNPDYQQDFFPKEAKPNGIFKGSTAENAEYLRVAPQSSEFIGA
Sequence of von Hippel-Lindau disease tumor suppressor/Epidermal growth factor receptor (Homo sapiens), P00533+P40337 [L858R,T790M] (P40337 whole entry partner): as the sequence (P40337 whole entry, stated change not applied) above

Assay [4] deals with von Hippel-Lindau disease tumor suppressor/Epidermal growth factor receptor (Homo sapiens), P00533+P40337 [UNDEFINED MUTATION]. Kind of assay: PROTAC activity at VHL/EGFR Del19 mutant in human HCC827 cells assessed as maximal EGFR degradation at 3.125 to 200 nM incubated for 72 hrs by Western blot analysis relative to control. To be noted: dose 3.125-200 nM. It counts as cell-based.

Assay [5] concerns NCI-H1975. Briefly: Antiproliferative activity against human NCI-H1975 cells harboring EGFR L858R/T790M double mutant assessed as inhibition of cell growth incubated for 48 to 72 hrs by CCK-8 assay. It counts as functional, cell-based.
The subject of assay [6] is HCC827. Briefly: Antiproliferative activity against human HCC827 cells harboring EGFR Del19 mutant assessed as inhibition of cell growth incubated for 48 to 72 hrs by CCK-8 assay. The assay is classed as functional, cell-based.
The next assay relates to A-431. Briefly: Antiproliferative activity against human A-431 cells harboring EGFR wild type assessed as inhibition of cell growth incubated for 48 to 72 hrs by CCK-8 assay. The assay is classed as functional, cell-based.
Assay [7] can be described thus: Antiproliferative activity against human H1975-TM cells harboring EGFR L858R/T790M/C797S mutant assessed as inhibition of cell growth incubated for 48 to 72 hrs by CCK-8 assay. The assay is classed as functional, cell-based.
A short description of assay [8]: Antitumor activity against human H1975-TM cells xenografted in BALB/c mouse assessed as tumor growth inhibition at 10 mg/kg,ip once daily for 14 days relative to control. The assay is classed as functional. The conditions noted are these: 336 h, time 14 day, read-out: TGI. Background: A xenograft is tissue or cells of one species grown in another, often human tumour cells in immunodeficient mice.

The subject of assay [9] is HCC827. Briefly: Antitumor activity against human HCC827 cells xenografted in BALB/c mouse assessed as tumor growth inhibition at 5 mg/kg,ip once daily for 28 days relative to control. To be noted: HCC827, 672 h, time 28 day, read-out: TGI. The assay is classed as functional.
The test system of assay [10] is NCI-H1975. Briefly: Antitumor activity against human NCI-H1975 cells xenografted in BALB/c mouse assessed as tumor growth inhibition at 10 mg/kg,ip once daily for 22 days relative to control. It counts as functional. The conditions noted are these: NCI-H1975, 528 h, time 22 day, read-out: TGI.

Sequence of von Hippel-Lindau disease tumor suppressor/Epidermal growth factor receptor (Homo sapiens, UniProt P00533+P40337) (P00533 whole entry, looked up, stated change not applied): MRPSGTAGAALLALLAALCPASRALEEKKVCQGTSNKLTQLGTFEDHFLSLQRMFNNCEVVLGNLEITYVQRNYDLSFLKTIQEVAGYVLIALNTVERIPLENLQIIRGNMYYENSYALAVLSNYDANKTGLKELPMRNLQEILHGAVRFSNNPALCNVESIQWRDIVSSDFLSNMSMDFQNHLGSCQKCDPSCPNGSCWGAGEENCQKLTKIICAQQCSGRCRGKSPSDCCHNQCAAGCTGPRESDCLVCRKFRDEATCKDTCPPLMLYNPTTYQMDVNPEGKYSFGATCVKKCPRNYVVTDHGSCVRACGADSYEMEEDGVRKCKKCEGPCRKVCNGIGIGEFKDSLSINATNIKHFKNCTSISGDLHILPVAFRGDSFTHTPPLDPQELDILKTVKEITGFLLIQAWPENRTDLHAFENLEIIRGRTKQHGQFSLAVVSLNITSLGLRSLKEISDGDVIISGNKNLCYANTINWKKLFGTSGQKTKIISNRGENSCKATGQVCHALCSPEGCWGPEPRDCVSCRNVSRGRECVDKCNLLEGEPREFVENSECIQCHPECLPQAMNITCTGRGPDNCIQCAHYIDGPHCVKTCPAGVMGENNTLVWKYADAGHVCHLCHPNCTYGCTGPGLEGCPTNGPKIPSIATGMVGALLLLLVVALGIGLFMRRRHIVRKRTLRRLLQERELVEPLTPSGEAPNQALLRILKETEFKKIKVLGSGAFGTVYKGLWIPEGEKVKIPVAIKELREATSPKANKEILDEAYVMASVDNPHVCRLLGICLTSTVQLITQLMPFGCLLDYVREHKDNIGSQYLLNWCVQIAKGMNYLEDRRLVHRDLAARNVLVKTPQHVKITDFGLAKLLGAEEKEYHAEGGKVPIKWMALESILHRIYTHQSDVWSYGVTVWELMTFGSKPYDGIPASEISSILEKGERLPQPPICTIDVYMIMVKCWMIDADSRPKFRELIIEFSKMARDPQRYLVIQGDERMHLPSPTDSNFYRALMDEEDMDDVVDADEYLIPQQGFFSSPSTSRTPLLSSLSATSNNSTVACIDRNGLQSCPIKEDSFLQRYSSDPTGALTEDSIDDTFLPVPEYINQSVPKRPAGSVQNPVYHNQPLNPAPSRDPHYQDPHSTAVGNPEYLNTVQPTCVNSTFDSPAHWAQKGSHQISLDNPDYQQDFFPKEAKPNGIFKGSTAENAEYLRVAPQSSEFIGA
Sequence of von Hippel-Lindau disease tumor suppressor/Epidermal growth factor receptor (Homo sapiens, UniProt P00533+P40337) (P40337 whole entry, looked up, stated change not applied): as the sequence (P40337 whole entry, stated change not applied) above

On to `CCN(CC)C/C=C/C(=O)Nc1cc2c(Nc3ccc(F)c(Cl)c3)ncnc2cc1OCc1cn(CCCCCCCCCCC(=O)N[C@H](C(=O)N2C[C@H](O)C[C@H]2C(=O)NCc2ccc(-c3scnc3C)cc2)C(C)(C)C)nn1`, for which the concentration for half-maximal inhibition (IC50) in the assay with A549 was over 20000 nM; with NCI-H1975 [5] it was 380 nM; in the assay on HCC827 [6], 15 nM; in the assay on A-431, over 20000 nM; in assay [7] it was over 20000 nM. For the same molecule, the results for the DC50 in assay [1] and in [2] were 28.7 nM and 380 nM, respectively. In addition, the Emax in assay [3] turned out to be 93%; in assay [4], 99%.

Regarding `C=CC(=O)Nc1cc(Nc2nccc(-c3cn(C)c4ccccc34)n2)c(OC)cc1N(C)CCN(C)C` [OSIMERTINIB], the IC50 is 1230 nM in the assay with A549; […] in the assay on NCI-H1975 [5]; 6 nM in the assay on HCC827 [6]; […] with A-431; 6700 nM in assay [7]. For the same molecule, the inhibition in vivo at 10 mg/kg in assay [8] is 27%.

Turning to `COc1cc2ncnc(Nc3ccc(F)c(Cl)c3)c2cc1NC(=O)/C=C/CN1CCCCC1` [DACOMITINIB ANHYDROUS], the half-inhibitory concentration (IC50) in the assay with A549 is 490 nM; with NCI-H1975 [5] it was 700 nM; in the assay on HCC827 [6], 7 nM; with A-431 it was 1960 nM; in [7], 7010 nM. Also, in the assay with HCC827 [9], the inhibition in vivo at 5 mg/kg stood at 90%. The inhibition in vivo at 10 mg/kg with NCI-H1975 [10] was found to be 67%.
